Assay results taken from ChEMBL document CHEMBL2396520, “The development of CNS-active LRRK2 inhibitors using property-directed optimisation” (Bioorg Med Chem Lett, 2013).

Tests used:
[1] = biological target: T1, Leucine-rich repeat serine/threonine-protein kinase 2 (Homo sapiens, UniProt Q5S007, G2019S); test: Inhibition of GST-tagged LRRK2 (1326 to 2527 amino acids) G2019S mutant (unknown origin)
[2] = test system: Brain; test: Drug uptake in mouse brain at 1 mg/kg, iv; type: ADME, organism-based; parameters: dose 1 mg/kg, route intravenous; conditions: in vivo
[3] = biological target: T1, Leucine-rich repeat serine/threonine-protein kinase 2; test: Inhibition of human recombinant LRRK2 G2019S mutant using biotin-LRRKtide as substrate preincubated for 15 mins prior to substrate addition measured after 60 mins by TR-FRET assay
[4] = biological target: Leucine-rich repeat serine/threonine-protein kinase 2 (Homo sapiens, UniProt Q5S007); test: Inhibition of human recombinant wild type LRRK2 using biotin-LRRKtide as substrate preincubated for 15 mins prior to substrate addition measured after 60 mins by TR-FRET assay
Chain of Leucine-rich repeat serine/threonine-protein kinase 2 (Homo sapiens, UniProt Q5S007) (Q5S007 whole entry): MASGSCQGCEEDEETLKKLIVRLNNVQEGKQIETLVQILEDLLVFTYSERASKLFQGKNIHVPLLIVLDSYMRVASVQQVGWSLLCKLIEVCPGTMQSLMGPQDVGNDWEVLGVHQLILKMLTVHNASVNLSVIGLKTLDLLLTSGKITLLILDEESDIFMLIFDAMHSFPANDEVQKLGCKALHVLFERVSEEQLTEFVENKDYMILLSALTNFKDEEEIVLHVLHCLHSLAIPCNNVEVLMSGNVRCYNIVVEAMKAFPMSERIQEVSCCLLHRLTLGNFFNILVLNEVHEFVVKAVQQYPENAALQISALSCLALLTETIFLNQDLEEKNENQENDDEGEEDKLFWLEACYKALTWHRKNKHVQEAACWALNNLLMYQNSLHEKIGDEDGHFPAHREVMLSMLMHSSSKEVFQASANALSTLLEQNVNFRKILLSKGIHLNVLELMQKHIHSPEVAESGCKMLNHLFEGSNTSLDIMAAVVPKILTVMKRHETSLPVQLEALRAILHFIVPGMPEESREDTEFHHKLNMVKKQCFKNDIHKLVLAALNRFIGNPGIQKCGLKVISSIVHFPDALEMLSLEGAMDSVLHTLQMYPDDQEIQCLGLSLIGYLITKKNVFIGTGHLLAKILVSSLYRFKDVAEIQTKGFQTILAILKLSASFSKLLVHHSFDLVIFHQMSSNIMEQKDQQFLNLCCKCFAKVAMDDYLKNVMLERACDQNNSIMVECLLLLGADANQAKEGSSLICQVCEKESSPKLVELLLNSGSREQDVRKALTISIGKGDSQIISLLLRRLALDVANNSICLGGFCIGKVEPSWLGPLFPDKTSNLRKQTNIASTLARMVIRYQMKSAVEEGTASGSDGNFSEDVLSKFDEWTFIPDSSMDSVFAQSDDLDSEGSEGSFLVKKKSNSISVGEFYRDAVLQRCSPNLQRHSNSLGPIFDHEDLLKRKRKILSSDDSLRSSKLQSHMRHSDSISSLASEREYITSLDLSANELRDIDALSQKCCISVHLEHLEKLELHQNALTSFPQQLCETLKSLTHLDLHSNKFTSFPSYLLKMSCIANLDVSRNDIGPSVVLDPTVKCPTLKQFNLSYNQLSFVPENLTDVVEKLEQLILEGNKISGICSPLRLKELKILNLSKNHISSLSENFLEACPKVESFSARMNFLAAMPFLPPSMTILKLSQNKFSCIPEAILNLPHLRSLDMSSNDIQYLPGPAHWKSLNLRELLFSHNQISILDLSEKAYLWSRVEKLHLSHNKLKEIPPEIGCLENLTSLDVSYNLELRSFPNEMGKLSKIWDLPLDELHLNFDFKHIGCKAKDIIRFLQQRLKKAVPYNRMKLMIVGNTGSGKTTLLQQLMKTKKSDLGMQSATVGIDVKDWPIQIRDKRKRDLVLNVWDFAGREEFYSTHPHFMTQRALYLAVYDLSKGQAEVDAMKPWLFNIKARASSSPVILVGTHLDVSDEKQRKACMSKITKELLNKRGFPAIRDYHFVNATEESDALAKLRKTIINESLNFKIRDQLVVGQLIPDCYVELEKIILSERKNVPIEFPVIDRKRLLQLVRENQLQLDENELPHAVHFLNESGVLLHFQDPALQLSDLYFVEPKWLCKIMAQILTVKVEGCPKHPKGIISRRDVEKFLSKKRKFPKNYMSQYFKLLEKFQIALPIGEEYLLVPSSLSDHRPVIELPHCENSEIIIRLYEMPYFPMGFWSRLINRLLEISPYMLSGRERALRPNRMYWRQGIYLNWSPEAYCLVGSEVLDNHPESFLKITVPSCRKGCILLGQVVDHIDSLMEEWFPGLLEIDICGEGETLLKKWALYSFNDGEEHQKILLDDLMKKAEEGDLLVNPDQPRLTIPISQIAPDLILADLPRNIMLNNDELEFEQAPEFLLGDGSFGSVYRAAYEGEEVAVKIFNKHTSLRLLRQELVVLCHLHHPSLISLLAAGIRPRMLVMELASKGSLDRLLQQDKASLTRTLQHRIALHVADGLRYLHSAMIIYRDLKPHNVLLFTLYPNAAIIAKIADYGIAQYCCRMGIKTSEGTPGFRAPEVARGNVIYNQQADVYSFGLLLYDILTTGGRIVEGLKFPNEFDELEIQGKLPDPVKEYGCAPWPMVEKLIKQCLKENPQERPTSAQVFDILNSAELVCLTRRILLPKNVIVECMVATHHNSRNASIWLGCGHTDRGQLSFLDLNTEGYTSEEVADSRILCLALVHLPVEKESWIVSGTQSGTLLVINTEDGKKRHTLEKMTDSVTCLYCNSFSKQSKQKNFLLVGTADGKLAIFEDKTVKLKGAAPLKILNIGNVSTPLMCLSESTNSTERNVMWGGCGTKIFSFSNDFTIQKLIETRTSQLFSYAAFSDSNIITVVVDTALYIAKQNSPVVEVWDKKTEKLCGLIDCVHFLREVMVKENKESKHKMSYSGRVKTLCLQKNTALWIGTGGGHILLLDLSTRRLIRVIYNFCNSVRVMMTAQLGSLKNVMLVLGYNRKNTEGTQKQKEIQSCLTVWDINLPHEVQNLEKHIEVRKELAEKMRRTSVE

T1 sequence (Q5S007 whole entry G2019S, the tested form may be a part): as the sequence (Q5S007 whole entry) above, with G2019S counted along it

Structure (SMILES)	Ki [1]	Drug uptake [2]	IC50 [3]	Ki [3]	IC50 [4]
COc1cc(C(=O)N2CCC(N3CCN(C)CC3)CC2)ccc1Nc1ncc2c(n1)N(C)c1ccccc1C(=O)N2C	6 nM				
COc1cc(N2CCOCC2)ccc1Nc1ncc(F)c(Nc2ccccc2NS(C)(=O)=O)n1		4%	7 nM	7 nM	4 nM
